# How the values were obtained:
# Type in all cases: in vivo, New Zealand White rabbits
# [1] = test system: TGF beta-1; test: IHC TGF beta-1 in posterior stroma after Descemetorhexis; conditions: topical and/or oral losartan
# Procedure: Duplex immunohistochemistry (IHC) was performed after masking of slides by a researcher not involved in the analysis using previously described methods (de Oliveira et al., 2021) using primary antibodies (Table 2) confirmed by western blotting and IHC to recognize rabbit antigens or isotypic control antibodies (ThermoFisher Scientific, Waltham, MA), and secondary fluorescent tagged antibodies (Table 3).
# The AB769 (Millipore, Temecula CA) collagen type IV antibody used in this study was generated against purified human and bovine collagen type IV, affinity purified with human and bovine collagen type IV crosslinked to agarose and cross-absorbed by the manufacturer with human and bovine collagens type I, II, III, V and VI to eliminate cross-reactivity. This antibody was shown previously to bind rabbit collagen IV in IHC (Sampaio et al., in press). The keratocan antibody was raised against peptide H2N-[…]-OH (SEQ ID NO:1).
# [2] = test system: rabbit corneas after 1N NaOH alkali burn injury; test: Slit lamp stromal opacity area and intensity (ImageJ) one month after alkali burn; conditions: topical 0.2 mg/ml losartan and/or 1% prednisolone acetate six times per day
# Procedure: All animal treatments and care were approved by the Institutional Animal Care and Use Committee (IACUC) at the Cleveland Clinic Foundation (Cleveland, OH, USA) and the Animal Care and Use Review Office of the Department of the Army (Fort Detrick, MD). All rabbits were treated in accordance with the tenets of the ARVO Statement for the Use of Animals in Ophthalmic and Vision Research. Sixteen 10- to 15-week-old female New Zealand White rabbits weighing 2.5 to 3.0 kg each were included in this example.
# Alkali injuries were produced in one eye of rabbits with previously published methods^10 using 1N sodium hydroxide (Sigma, St. Louis, MO) in balanced salt solution (BSS, 0.64% sodium chloride, 0.075% potassium chloride, 0.048% calcium chloride dihydrate, 0.03% magnesium chloride hexahydrate, 0.39% sodium acetate trihydrate, 0.17% sodium citrate dihydrate, pH 7.5, Alcon, Ft. Worth, TX) and a 5 mm diameter circular Whatman No. 1 filter paper (Cat #1001-6508, Fisher Scientific) wetted with 100 μl of 1N NaOH solution. Following the alkali burn injury, the cornea was irrigated profusely with BSS. Each injured cornea also received one drop of ciprofloxacin (Alcon, Ft. Worth, TX, USA) ten minutes after surgery and four times a day for one week and at least 15 minutes apart from the study medications.
# Worth TX), at least 5 minutes apart, or 4) 50 μl of BSS.
# At one month after sodium hydroxide exposure and treatments, with the rabbits under ketamine-xylazine general anesthesia, the eyes were dilated with two drops of 1% tropicamide (Akom Co., Lake Forest, IL) for thirty minutes. The study eye in each rabbit had slit lamp photographs with standardized illumination level and angle of illumination at 20× magnification with a Topcon (Oakland, NJ, USA) SL-D7 slit lamp photography system. For each study eye, the total area of opacity was determined by outlining the opacity with the freehand selection tool using ImageJ 1.53a analysis software calibrated to mm^2. The “raw internal density” in pixels for the opacified area in each cornea was also determined using ImageJ.
# [3] = test system: α-SMA-positive myofibroblasts; test: IHC for α-SMA-positive myofibroblasts, area and intensity (ImageJ) after alkali burn; conditions: one month
# Procedure: One month after exposure and topical treatment, rabbits were euthanized after ketamine-xylazine general anesthesia with 100 mg/kg Beuthanasia (Shering-Plough, Kenilworth, NJ) by intravenous injection and bilateral pneumothorax. The corneo-scleral rims of eyes were removed with sharp Westcott scissors (Fairfield, CT, USA) and 0.12 forceps (Storz, St. Louis, MO). The cornea was centered in a 24×24×5 mm mold (Fisher Scientific, Pittsburgh, PA, USA) that was filled with OCT compound (Sakura Finetek, Torrance, CA, USA) and quick frozen on dry ice. Blocks were stored at −80° C. until sectioning. […]
# The area of the α-SMA-positive stroma in mm^2 and the total α-SMA opacity in pixels were quantitated using standardized images obtained with a 10× objective on a Leica DM6B upright microscope equipped with an automated stage and Leica 7000 T camera using the LAS X software (Leica Microsystems, GmbH, Wetzlar, Germany). The means of three central corneal sections were analyzed from each cornea to provide the area of α-SMA-positive stroma and the total α-SMA opacity. […] In these same sections for each cornea, the total α-SMA-positive intensity in pixels was also determined with ImageJ, similarly by using the summation if separate α-SMA-positive areas were present.
smiles,measurement,setting,value
CCCCc1nc(Cl)c(CO)n1Cc1ccc(-c2ccccc2-c2nn[nH]n2)cc1 [losartan],levels of TGF beta-1 in the posterior stroma or at the posterior stromal surface vs vehicle,[1],No effect
same,"total corneal opacity area measured with ImageJ, vs BSS vehicle",[2],decreased
same,"total opacity in pixels in the opacified area of cornea, vs vehicle BSS group",[2],significantly lower
same,total α-SMA area vs vehicle control group,[3],trend towards the losartan group being significantly different
